Measurements published in patent US9180120B2, “Substituted N-phenethyltriazoloneacetamides and use thereof” (Bayer Intellectual Property GmbH, priority 2010, dated 2015).

Columns and labels:
human V1a receptor = human V1a receptor (Homo sapiens (Human), UniProt P37288); assay: Cellular in vitro assay for determining the vasopressin receptor activity (aequorin luminescence, CHO cells, antagonism of [Arg8]-vasopressin); type: cell-based; settings: cell line transfected with the human V1a receptor; agonist [Arg8]-vasopressin; read-out: IC50 hV1a
human V1a receptor, sequence (P37288 whole entry): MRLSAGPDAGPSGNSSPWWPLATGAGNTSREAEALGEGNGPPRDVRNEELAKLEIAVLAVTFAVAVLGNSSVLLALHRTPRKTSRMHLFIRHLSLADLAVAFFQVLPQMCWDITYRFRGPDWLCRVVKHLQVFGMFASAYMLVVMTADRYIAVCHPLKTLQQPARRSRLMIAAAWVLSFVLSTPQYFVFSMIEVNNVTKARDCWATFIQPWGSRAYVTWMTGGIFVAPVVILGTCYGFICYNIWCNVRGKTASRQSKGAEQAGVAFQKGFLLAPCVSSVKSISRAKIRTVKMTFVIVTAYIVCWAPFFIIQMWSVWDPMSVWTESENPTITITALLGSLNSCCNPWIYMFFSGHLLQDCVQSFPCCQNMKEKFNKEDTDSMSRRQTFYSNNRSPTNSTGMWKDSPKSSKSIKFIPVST
Source text: (§1) • EDTA ethylenediaminetetraacetic acid • DMEM Dulbecco's Modified Eagle Medium • FCS foetal calf serum • HEPES 4-(2-hydroxyethyl)-1-piperazineethanesulphonic acid • SmGM Smooth Muscle Cell Growth Media • Tris-HCl 2-amino-2-(hydroxymethyl)-1,3-propanediol hydrochloride B-1. Cellular in vitro Assay for Determining the Vasopressin Receptor Activity
(§2) The identification of agonists and antagonists of the V1a and V2 vasopressin receptors from humans and rats and also the quantification of the activity of the compounds of the invention takes place using recombinant cell lines. […] In addition, the cells are stably transfected with the human or rat V1a or V2 receptors.
(§3) On the day before the assay, the cells are plated out in culture medium (DMEM, 10% FCS, 2 mM glutamine, 10 mM HEPES) in 384-well microtitre plates and kept in a cell incubator (96% humidity, 5% v/v CO2, 37° C.). On the day of the assay, the culture medium is replaced by a Tyrode solution (140 mM NaCl, 5 mM KCl, 1 mM MgCl2, 2 mM CaCl2, 20 mM glucose, 20 mM HEPES), which additionally contains the cofactor coelenterazine (50 μM), and the microtitre plate is then incubated for a further 3-4 hours. The test substances in various concentrations are placed for 10 to 20 minutes in the wells of the microtitre plate before the agonist [Arg^8]-vasopressin is added, and the resulting light signal is measured immediately in the luminometer.

human V2 receptor = human V2 receptor (Homo sapiens (Human), UniProt P30518); assay: as above; type: cell-based; settings: cell line transfected with the human V2 receptor; agonist [Arg8]-vasopressin; read-out: IC50 hV2
human V2 receptor, sequence (P30518 whole entry): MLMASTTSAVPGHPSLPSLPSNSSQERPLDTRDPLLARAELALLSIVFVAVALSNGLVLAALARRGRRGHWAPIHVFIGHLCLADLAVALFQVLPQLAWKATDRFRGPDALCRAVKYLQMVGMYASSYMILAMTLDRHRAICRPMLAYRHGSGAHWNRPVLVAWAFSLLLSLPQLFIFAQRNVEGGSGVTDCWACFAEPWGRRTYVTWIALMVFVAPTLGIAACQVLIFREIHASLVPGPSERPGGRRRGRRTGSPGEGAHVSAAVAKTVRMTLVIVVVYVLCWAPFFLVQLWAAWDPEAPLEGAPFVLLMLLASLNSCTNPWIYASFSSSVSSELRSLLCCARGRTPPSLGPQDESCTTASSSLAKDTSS
Source text: as §1, §2, §3

| IC50 (human V1a receptor) [nM] | IC50 (human V2 receptor) [nM] | SMILES |
| --- | --- | --- |
| 10 | 22 | NC(=O)OC(CNC(=O)Cn1nc(-c2ccc(Cl)cc2)n(Cc2ccccc2F)c1=O)c1ccccc1Cl (racemic) [Example 57, 1-(2-Chlorophenyl)-2-({[3-(4-chlorophenyl)-4-(2-fluorobenzyl)-5-oxo-4,5-dihydro-1H-1,2,4-triazol-1-yl]acetyl}amino)ethyl carbamate] |
| 14 | 48 | NC(=O)OC(CNC(=O)Cn1nc(-c2ccc(Cl)cc2)n(CCC(F)(F)F)c1=O)c1ccccc1Cl (racemic) [Example 59, 1-(2-Chlorophenyl)-2-({[3-(4-chlorophenyl)-5-oxo-4-(3,3,3-trifluoropropyl)-4,5-dihydro-1H-1,2,4-triazol-1-yl]acetyl}amino)ethyl carbamate] |
| 51 | 1200 | COCCn1c(-c2ccc(Cl)s2)nn(CC(=O)NCC(NC(=O)OC(C)(C)C)c2ccccc2C(F)(F)F)c1=O (racemic) [Example 66, tert-Butyl {2-({[3-(5-chloro-2-thienyl)-4-(2-methoxyethyl)-5-oxo-4,5-dihydro-1H-1,2,4-triazol-1-yl]acetyl}amino)-1-[2-(trifluoromethyl)phenyl]ethyl}carbamate] |
| 18 | 300 | CC(C)(C)OC(=O)NC(CNC(=O)Cn1nc(-c2ccc(Cl)s2)n(Cc2ccccc2F)c1=O)c1ccccc1C(F)(F)F (racemic) [Example 67, tert-Butyl {2-({[3-(5-chloro-2-thienyl)-4-(2-fluorobenzyl)-5-oxo-4,5-dihydro-1H-1,2,4-triazol-1-yl]acetyl}amino)-1-[2-(trifluoromethyl)phenyl]ethyl}carbamate] |
| 130 | 3500 | COCCn1c(-c2ccc(Cl)s2)nn(CC(=O)NCC(NS(C)(=O)=O)c2ccccc2C(F)(F)F)c1=O (racemic) [Example 69, 2-[3-(5-Chloro-2-thienyl)-4-(2-methoxyethyl)-5-oxo-4,5-dihydro-1H-1,2,4-triazol-1-yl]-N-{2-[(methylsulphonyl)amino]-2-[2-(trifluoromethyl)phenyl]ethyl}acetamide] |
| 1 | 16 | NC(=O)OCC(CNC(=O)Cn1nc(-c2ccc(Cl)cc2)n(C[C@H](O)C(F)(F)F)c1=O)c1ccccc1C(F)(F)F (single isomer, unassigned) [Example 2] |
| 12 | – | NC(=O)OCC(CNC(=O)Cn1nc(-c2ccc(Cl)cc2)n(C[C@H](O)C(F)(F)F)c1=O)c1ccccc1Cl (single isomer, unassigned) [Example 6] |
| 63 | 5 | NC(=O)OCC(CNC(=O)Cn1nc(-c2ccc(Cl)cc2)n(C[C@H](O)C(F)(F)F)c1=O)c1cccc(C(F)(F)F)c1 (single isomer, unassigned) [Example 9] |
| – | 11 | CC(C)(C)OC(=O)NC(CNC(=O)Cn1nc(-c2ccc(Cl)cc2)n(C[C@H](O)C(F)(F)F)c1=O)c1cccc(Cl)c1Cl (single isomer, unassigned) [Example 19] |
| 17 | 8 | NC(=O)NC(CNC(=O)Cn1nc(-c2ccc(Cl)cc2)n(C[C@H](O)C(F)(F)F)c1=O)c1ccccc1Cl (single isomer, unassigned) [Example 33] |
| 25 | 10 | CC(=O)NC(C)(CNC(=O)Cn1nc(-c2ccc(Cl)cc2)n(C[C@H](O)C(F)(F)F)c1=O)c1cccc(C(F)(F)F)c1 (single isomer, unassigned) [Example 39] |
| 8 | 3 | NC(=O)OC(CNC(=O)Cn1nc(-c2ccc(Cl)cc2)n(C[C@H](O)C(F)(F)F)c1=O)c1ccccc1C(F)(F)F (single isomer, unassigned) [Example 42] |
| 7 | 2 | NC(=O)OC(CNC(=O)Cn1nc(-c2ccc(Cl)cc2)n(C[C@H](O)C(F)(F)F)c1=O)c1cccc(Cl)c1Cl (single isomer, unassigned) [Example 52] |
| 24 | 9 | CCNC(=O)OCC(CNC(=O)Cn1nc(-c2ccc(Cl)cc2)n(C[C@H](O)C(F)(F)F)c1=O)c1cccc(C(F)(F)F)c1 (stereo partly drawn) [Example 10, 3-[({3-(4-Chlorophenyl)-5-oxo-4-[(2S)-3,3,3-trifluoro-2-hydroxypropyl]-4,5-dihydro-1H-1,2,4-triazol-1-yl}acetyl)amino]-2-[3-(trifluoromethyl)phenyl]propyl ethylcarbamate] |
| 4 | 70 | CC(C)(C)OC(=O)NC(CNC(=O)Cn1nc(-c2ccc(Cl)cc2)n(C[C@H](O)C(F)(F)F)c1=O)c1ccccc1C(F)(F)F (stereo partly drawn) [Example 13, tert-Butyl {2-[({3-(4-chlorophenyl)-5-oxo-4-[(2S)-3,3,3-trifluoro-2-hydroxypropyl]-4,5-dihydro-1H-1,2,4-triazol-1-yl}acetyl)amino]-1-[2-(trifluoromethyl)phenyl]ethyl}carbamate] |
| 8 | 5 | CS(=O)(=O)NC(CNC(=O)Cn1nc(-c2ccc(Cl)cc2)n(C[C@H](O)C(F)(F)F)c1=O)c1ccccc1Cl (stereo partly drawn) [Example 25, N-{2-(2-Chlorophenyl)-2-[(methylsulphonyl)amino]ethyl}-2-{3-(4-chlorophenyl)-5-oxo-4-[(2S)-3,3,3-trifluoro-2-hydroxypropyl]-4,5-dihydro-1H-1,2,4-triazol-1-yl}acetamide] |
| 19 | 13 | O=CNC(CNC(=O)Cn1nc(-c2ccc(Cl)cc2)n(C[C@H](O)C(F)(F)F)c1=O)c1cccc(C(F)(F)F)c1 (stereo partly drawn) [Example 36, 2-{3-(4-Chlorophenyl)-5-oxo-4-[(2S)-3,3,3-trifluoro-2-hydroxypropyl]-4,5-dihydro-1H-1,2,4-triazol-1-yl}-N-{2-formamido-2-[3-(trifluoromethyl)phenyl]ethyl}acetamide] |
| 5 | 2 | NC(=O)OC(CNC(=O)Cn1nc(-c2ccc(Cl)cc2)n(C[C@H](O)C(F)(F)F)c1=O)c1ccccc1Cl (stereo partly drawn) [Example 47, 1-(2-Chlorophenyl)-2-[({3-(4-chlorophenyl)-5-oxo-4-[(2S)-3,3,3-trifluoro-2-hydroxypropyl]-4,5-dihydro-1H-1,2,4-triazol-1-yl}acetyl)amino]ethyl carbamate] |
| 4 | 15 | O=C(Cn1nc(-c2ccc(Cl)cc2)n(C[C@H](O)C(F)(F)F)c1=O)N[C@@H](CO)Cc1cccc(C(F)(F)F)c1 [Example 53, 2-{3-(4-Chlorophenyl)-5-oxo-4-[(2S)-3,3,3-trifluoro-2-hydroxypropyl]-4,5-dihydro-1H-1,2,4-triazol-1-yl}-N-{(2R)-1-hydroxy-3-[3-(trifluoromethyl)phenyl]propan-2-yl}acetamide] |
